In the supplement of paper PMC13380429:

Columns and labels:
[1] = tested on: A549-ACE2 infected with SARS-CoV-2; assay: cell count relative to DMSO; higher = less toxic; details: 24 h
Caco-2 [2] = assay: cell viability relative to DMSO; higher = less toxic; details: 72 h
Calu-3 [3] = assay: as above; details: 72 h
HepG2 [4] = assay: as above; details: 72 h
U2OS [5] = assay: as above; details: 72 h
Vero E6 [6] = assay: as above; details: 72 h
[7] = tested on: A549-ACE2 infected with SARS-CoV-2; assay: SARS-CoV-2 infection rate relative to DMSO; higher = more infection; details: 24 h
A549-ACE2 [8] = assay: phospholipidosis EC50; higher = less potent phospholipidosis inducer
A549-ACE2 [9] = assay: drug-induced phospholipidosis relative to tamoxifen; higher = more phospholipidosis
[10] = tested on: A549-ACE2 infected with SARS-CoV-2; assay: morphology score (similarity to uninfected cells); higher = more like uninfected cells; details: 24 h
Caco-2 [11] = assay: relative viability EC50 (midpoint between 100% and the lowest measured viability); higher = less toxic; details: 72 h
Calu-3 [12] = assay: as above; details: 72 h
HepG2 [13] = assay: as above; details: 72 h
U2OS [14] = assay: as above; details: 72 h
Caco-2 [15] = assay: drug sensitivity score (DSS) for viability; higher = more toxic; extreme values may be limits of the assay; details: 72 h
Calu-3 [16] = assay: as above; details: 72 h
HepG2 [17] = assay: as above; details: 72 h
U2OS [18] = assay: as above; details: 72 h
Vero E6 [19] = assay: as above; details: 72 h
Vero E6 [20] = assay: relative viability EC50 (midpoint between 100% and the lowest measured viability); higher = less toxic; details: 72 h

CCn1c2ccccc2c2cc(Nc3ccnc(NCCCN4CCOCC4)n3)ccc21 [EHop-016]
Details	SARS-CoV-2 infection rate [%]	cell count [%]	cell viability [%]	morphology score	phospholipidosis EC50 [nM]
A549-ACE2 [8], 24 h	–	–	–	–	895
A549-ACE2 [8], 48 h	–	–	–	–	1390
A549-ACE2 [8], 72 h	–	–	–	–	3130
Caco-2 [2], 1 nM	–	–	91.4	–	–
Caco-2 [2], 10 nM	–	–	93.5	–	–
Caco-2 [2], 100 nM	–	–	97.4	–	–
Caco-2 [2], 1000 nM	–	–	85.5	–	–
Caco-2 [2], 10000 nM	–	–	31.2	–	–
Calu-3 [3], 1 nM	–	–	95	–	–
Calu-3 [3], 10 nM	–	–	98	–	–
Calu-3 [3], 100 nM	–	–	100	–	–
Calu-3 [3], 1000 nM	–	–	99	–	–
Calu-3 [3], 10000 nM	–	–	6.7	–	–
HepG2 [4], 1 nM	–	–	103	–	–
HepG2 [4], 10 nM	–	–	104	–	–
HepG2 [4], 100 nM	–	–	98.5	–	–
HepG2 [4], 1000 nM	–	–	98	–	–
HepG2 [4], 10000 nM	–	–	28.1	–	–
U2OS [5], 1 nM	–	–	100	–	–
U2OS [5], 10 nM	–	–	94.1	–	–
U2OS [5], 100 nM	–	–	101	–	–
U2OS [5], 1000 nM	–	–	91	–	–
U2OS [5], 10000 nM	–	–	34.6	–	–
Vero E6 [6], 1 nM	–	–	102	–	–
Vero E6 [6], 10 nM	–	–	97.2	–	–
Vero E6 [6], 100 nM	–	–	88.9	–	–
Vero E6 [6], 1000 nM	–	–	94.3	–	–
Vero E6 [6], 10000 nM	–	–	64.3	–	–
[1], 0.1 µM	–	93	–	–	–
[1], 0.3 µM	–	100	–	–	–
[1], 1 µM	–	103	–	–	–
[1], 3 µM	–	118	–	–	–
[7], 0.1 µM	98	–	–	–	–
[7], 0.3 µM	97	–	–	–	–
[7], 1 µM	70	–	–	–	–
[7], 3 µM	23	–	–	–	–
[10], 0.1 µM	–	–	–	-0.12	–
[10], 0.3 µM	–	–	–	-0.03	–
[10], 1 µM	–	–	–	0.46	–
[10], 3 µM	–	–	–	0.79	–

drug-induced phospholipidosis [%], A549-ACE2 [9]
Details	0.3 µM	0.833333 µM	3.33333 µM	6.66667 µM	10 µM	30 µM
24 h	3.51	16.7	47	47.4	52.6	11.5
48 h	4.02	8.22	56.9	63.9	72.1	40.9
72 h	3.76	2.65	48.2	69.6	81.3	–

Details	drug sensitivity score	relative viability EC50 [nM]
Caco-2 [11]	–	1690
Caco-2 [15]	6.1	–
Calu-3 [12]	–	3090
Calu-3 [16]	5.3	–
HepG2 [13]	–	2960
HepG2 [17]	4.2	–
U2OS [14]	–	2060
U2OS [18]	5.1	–
Vero E6 [19]	2.6	–

CC1(C)CC[C@]2(NC(=O)C(C)(F)F)CC[C@]3(C)[C@H](C(=O)C=C4[C@@]5(C)C=C(C#N)C(=O)C(C)(C)[C@@H]5CC[C@]43C)[C@@H]2C1 [Omaveloxolone (RTA-408)]
Details	SARS-CoV-2 infection rate, [7] [%]	cell count, [1] [%]	cell viability, Caco-2 [2] [%]	cell viability, Calu-3 [3] [%]	cell viability, HepG2 [4] [%]	cell viability, U2OS [5] [%]	cell viability, Vero E6 [6] [%]	morphology score, [10]
1 nM	–	–	100	99.6	97.6	96.8	107	–
10 nM	–	–	102	118	91.6	102	108	–
100 nM	–	–	85.7	90.7	83.6	98.7	103	–
0.3 µM	111	97	–	–	–	–	–	-0.26
1000 nM	–	–	32.3	23.6	1.2	1.9	7.7	–
3 µM	0	1	–	–	–	–	–	0.09
10000 nM	–	–	5.4	1.6	-0.3	-0.1	-0.1	–

A549-ACE2 [9], 0.3 µM
Details	drug-induced phospholipidosis [%]
24 h	9.83
48 h	10.5
72 h	21.8

Details	drug sensitivity score	relative viability EC50 [nM]
Caco-2 [11]	–	450
Caco-2 [15]	14.5	–
Calu-3 [12]	–	452
Calu-3 [16]	15.4	–
HepG2 [13]	–	192
HepG2 [17]	20.7	–
U2OS [14]	–	321
U2OS [18]	17.9	–
Vero E6 [19]	16.6	–
Vero E6 [20]	–	410
